In brackets after ≈: the same amount, converted by molar mass.
How the values were obtained:
[1] = physchem; details: pH 7.4, aqueous buffer, kinetic from dmso stock
[2] = in vitro; details: PAMPA
[3] = tested on: SKOV-3 cells; assay: Mitochondrial transmembrane depolarization potential; format: cell-based
[4] = target: T1, VDR-SRC2-1 (Homo sapiens, UniProt P11473, DEL165-215); assay: VDR-coregulator binding FP, Texas Red-labeled peptide; details: 3 h
T1 construct: made in house
T1 sequence (P11473 with tags, fused parts or gaps DEL165-215 limits assumed): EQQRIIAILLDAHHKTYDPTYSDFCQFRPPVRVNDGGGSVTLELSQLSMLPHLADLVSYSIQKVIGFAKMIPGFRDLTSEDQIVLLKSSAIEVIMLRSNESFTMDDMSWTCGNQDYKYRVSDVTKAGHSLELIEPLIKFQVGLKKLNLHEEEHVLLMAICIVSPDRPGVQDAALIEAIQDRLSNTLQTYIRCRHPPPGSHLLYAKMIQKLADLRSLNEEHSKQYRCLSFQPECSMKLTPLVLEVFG

[5] = tested on: SKOV-3 cells; assay: Cell cycle analysis by FACS; format: cell-based; details: SKOV-3, 24 hours
Description: Inducing cell cycle arrest or targeting cell-cycle regulators by small molecule modulators has shown promising outcomes in animal models.

[6] = tested on: SKOV-3 cells; assay: Reactive oxygen species levels; format: cell-based; details: SKOV-3, within 24 hours
Description: (§1) Vitamin-d/VDR signaling protects the cancer cells from reactive oxygen species (ROS) induced cellular damages.

[7] = tested on: CYP24A1; assay: CYP24A1 expression levels; format: cell-based; details: compound and calcitriol
[8] = tested on: ECC-1; assay: Cytotoxicity, MTS assay; format: cell-based; details: ECC-1 endometrial cancer cell-line, within 48 hours
[9] = tested on: VDR in SKOV-3 cells; assay: VDR expression, western blotting of whole cell lysate; format: cell-based; details: SKOV-3, 24 hours; 31b 25 and 50 uM, 32b 50 uM
Procedure: Expression of VDR was analyzed by western blotting of whole cell lysate using monoclonal antibody against VDR (Neomarker, Calif. cat no-RT-200PO).

[10] = tested on: DU145 cells; assay: Cytotoxicity seen in TRPV6 expression study; format: cell-based; details: concentrations higher than 20 μM
[11] = target: T2, VDR-Hr1 (Homo sapiens, UniProt P11473, DEL165-215); assay: VDR-coregulator binding FP, Texas Red-labeled peptide; details: 3 h
T2 construct: made in house
T2 sequence (P11473 with tags, fused parts or gaps DEL165-215 limits assumed): T1 sequence (P11473 with tags, fused parts or gaps DEL165-215 limits assumed)

[12] = PAMPA
[13] = tested on: SKOV-3; assay: Cytotoxicity, MTS assay; format: cell-based; details: SKOV-3, within 48 hours
[14] = tested on: SKOV-3 cells; assay: Western blots for cleaved PARP-1 and cleaved caspase-3; format: cell-based; details: SKOV-3, within 24 hours
[15] = 12 h, pH 7.4
[16] = target: T3, VDR-LBD / SRC2-3 peptide (Homo sapiens, UniProt P11473, DEL165-215); assay: Identification of reaction partner, pre-incubation FP; format: binding; details: FP after 5 minutes
T3 construct: made in house
T3 sequence (P11473 with tags, fused parts or gaps DEL165-215 limits assumed): T1 sequence (P11473 with tags, fused parts or gaps DEL165-215 limits assumed)

[17] = tested on: SKOV-3 cells; assay: Western blots for phospho-p38 MAPkinase and phospho SAPK/JNK; format: cell-based; details: SKOV-3, 25 uM, within 24 hours
Description: as §1

[18] = target: T4, VDR-SRC2 interaction (Homo sapiens, UniProt P11473, DEL165-215); assay: Pull down assay, VDR and SRC2 bearing all three NIDs
T4 sequence (P11473 with tags, fused parts or gaps DEL165-215 limits assumed): T1 sequence (P11473 with tags, fused parts or gaps DEL165-215 limits assumed)

[19] = tested on: OVCAR-8; assay: Cytotoxicity, MTS assay; format: cell-based; details: OVCAR-8, within 48 hours
[20] = tested on: TRPV6 in DU145 cells; assay: TRPV6 expression, semi-quantitative RT-PCR; format: cell-based
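Wherever Papp is given: passive permeability measured by parallel artificial membrane permeability assay, each experiment run in triplicate.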
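Wherever Permeability Log(Pe) is given: passive permeability measured by parallel artificial membrane permeability assay, each experiment run in triplicate.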

SMILES: Cc1[nH]c2ccccc2c1C(Nc1ccccc1)c1ccc(OCCCO)cc1 (stereo not shown) [Compound 30i, 3-(4-((2-methyl-1H-indol-3-yl)(phenylamino)methyl)phenoxy)propan-1-ol]
- solubility at 12 h [1]: 503 µM (≈ 195 µg/mL)
- Papp [2]: 0.148 ×10⁻⁶ cm/s

SMILES: Cc1[nH]c2ccccc2c1C(Nc1ccc(Cl)cc1)c1ccccc1Cl (stereo not shown) [Compound 31b, 4-chloro-N-((2-chlorophenyl)(2-methyl-1H-indol-3-yl)methyl)aniline]
- Mitochondrial transmembrane depolarization potential (ΔΨm) [3]: induced activation of mitochondrial transmembrane depolarization potential
- Inhibition of VDR-SRC2-1 binding [4]: no inhibition
- Apoptotic (subG1/G0) population [5]: increase
- Population in G1 and G2/M phase [5]: reduced
- S-phase arrest of cycling cells [5]: restricted the progression of cycling cells in S-phase significantly
- Reactive oxygen species level compared to vehicle [6]: elevated level of reactive production
- CYP24A1 induction with calcitriol, in comparison to calcitriol treatment [7]: significant increase in CYP24A1 induction
- Cytotoxicity, cell viability [8]: potent cytotoxicity
- Expression of VDR [9]: downregulation of VDR
- Cytotoxicity in DU145 cells [10]: increased cytotoxicity
- Inhibition of VDR-Hr1 binding [11]: no inhibition
- Permeability Log(Pe) [12]: −6.24 cm/s
- Cytotoxicity, cell viability [13]: potent cytotoxicity
- Activation of caspase-3 [14]: activation of caspase-3
- Cleavage of PARP-1 [14]: significant cleavage of PARP-1
- Solubility [15]: 68.0 µM (≈ 25.9 µg/mL)
- FP signal after pre-incubation with SRC2-3 for 3 hours, then addition of VDR-LBD and LG190178 [16]: did not change
- FP signal after pre-incubation with VDR-LBD and LG190178 for 3 hours, then addition of SRC2-3 [16]: did result in a change of FP signal
- Activation of SAPK/JNK [17]: strong/sustained activation of SAPK/JNK
- Activation of p38 MAPkinase [17]: activation of p38 MAPkinase
- Inhibition of VDR-SRC2 interaction in pull down assay ([18]; 50 μM and 100 μM, residual interaction still detected): significant inhibition
- VDR-SRC2 interaction after pre-incubation of SRC2 with compound ([18]; beads washed, then treated with VDR): VDR-SRC2 interactions could be verified
- Inhibition of VDR-SRC2 interaction in pull down assay ([18]; different concentrations, with 1,25(OH)2D3): blocked in a dose dependent manner
- Cytotoxicity, cell viability [19]: potent cytotoxicity
- TRPV6 transcription in the presence of 1,25-(OH)2D3 ([20]; 20 nM 1,25-(OH)2D3, different concentrations): reduced in a dose dependent manner
- TRPV6 regulation, single treatment ([20]; 20 μM, without 1,25-(OH)2D3): no regulation of TRPV6

— patent US10093653B2, “Vitamin D receptor-coregulator inhibitors” (UWM Research Foundation, Inc., priority 2011, dated 2018)
